We go through four compounds from ChEMBL document CHEMBL1201861, “Genomics of Drug Sensitity in Cancer screening data, Wellcome Trust Sanger Institute”.

Molecules are shown by their SMILES.

Assay type in all cases: functional, cell-based
One assay has as its system D-392MG. Kind of assay: cells. The following applies: Homo sapiens.
The subject of a further assay is D-566MG. Kind of assay: cells. The conditions noted are these: Homo sapiens.
The next assay deals with DMS-114. Kind of assay: cells. The following applies: Homo sapiens.
The next assay relates to EM-2. Kind of assay: cells. The conditions noted are these: Homo sapiens.
In another assay the test system is ES7. Description: cells. The conditions noted are these: Homo sapiens.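 Further: growth inhibition of cultured human ES7 cells, read out as cell viability.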
In a further assay the test system is K5. Kind of assay: cells. The following applies: Homo sapiens.
In another assay the test system is L-363. Kind of assay: cells. The following applies: Homo sapiens.
For a further assay, the system named is LB1047-RCC. Kind of assay: cells. The following applies: Homo sapiens.
The next assay concerns MEG-01. Kind of assay: cells. The conditions noted are these: Homo sapiens.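 Further: growth inhibition of MEG-01 cells, read out by a cell viability assay.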
The next assay relates to MHH-NB-11. Kind of assay: cells. The conditions noted are these: Homo sapiens.
In another assay the test system is NCI-H1581. Description: cells. The conditions noted are these: Homo sapiens.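 Further: cell growth inhibition read out by a viability assay.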
A further assay has as its system NCI-H446. Kind of assay: cells. The conditions noted are these: Homo sapiens.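 Further: growth inhibition of NCI-H446 cells determined by a cell viability assay.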
The next assay relates to A2780. Description: cells. The following applies: Homo sapiens.
The subject of the next assay is A-427. Kind of assay: cells. The following applies: Homo sapiens.
A further assay deals with AGS. Kind of assay: cells. The conditions noted are these: Homo sapiens.
The test system of a further assay is CHP-212. Kind of assay: cells. The conditions noted are these: Homo sapiens.
Another assay deals with KU812 cell line. Description: cells. The conditions noted are these: Homo sapiens.
The subject of a further assay is LXF-289 cell line. Kind of assay: cells. The following applies: Homo sapiens.
The subject of a further assay is A253 cell line. Description: cells. The following applies: Homo sapiens.
The next assay has as its system BC1 cell line. Kind of assay: SANGER: Inhibition of human BC-1 cell growth in a cell viability assay.
The test system of a further assay is COLO-824. Kind of assay: cells. The following applies: Homo sapiens.
Another assay concerns COR-L88. Kind of assay: cells. The following applies: Homo sapiens.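 Further: growth inhibition of COR-L88 cells, read out with a cell viability assay.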
The subject of the next assay is CaR-1. Kind of assay: cells. The conditions noted are these: Homo sapiens.
Another assay relates to DMS-273. Description: cells. The conditions noted are these: Homo sapiens.
For another assay, the system named is DSH1. Description: cells. The conditions noted are these: Homo sapiens.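 Further: growth inhibition of human DSH1 cells, measured with a cell viability readout.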
For another assay, the system named is EW-18. Description: cells. The conditions noted are these: Homo sapiens.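 Further: growth inhibition of EW-18 cells, read out by a cell viability assay.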
Another assay concerns GCT. Description: cells. The conditions noted are these: Homo sapiens.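 Further: GCT cell line proliferation inhibition, read out with a cell viability assay.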
The subject of the next assay is GI-1. Description: cells. The conditions noted are these: Homo sapiens.
A further assay deals with H-EMC-SS. Description: cells. The following applies: Homo sapiens.
A further assay concerns HCC1569. Description: cells. The following applies: Homo sapiens.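 Further: growth inhibition of human HCC1569 cells, read out with a cell viability assay.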
The next assay relates to HEL. Kind of assay: cells. The following applies: Homo sapiens.
The test system of another assay is HN. Kind of assay: cells. The conditions noted are these: Homo sapiens.
The subject of the next assay is HSC-2. Description: cells. The conditions noted are these: Homo sapiens.
A further assay relates to HT55. Description: cells. The conditions noted are these: Homo sapiens.
A further assay concerns HTC-C3. Kind of assay: cells. The conditions noted are these: Homo sapiens.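 Further: inhibition of cell growth, read out with a cell viability assay.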
The next assay deals with Huh-7. Description: cells. The conditions noted are these: Homo sapiens.
In another assay the test system is IA-LM. Kind of assay: cells. The conditions noted are these: Homo sapiens.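 Further: cell viability assay measuring growth inhibition of human IA-LM cells.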
A further assay has as its system IST-SL1. Kind of assay: cells. The conditions noted are these: Homo sapiens.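 Further: growth inhibition of human IST-SL1 cells, read out with a cell viability assay.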
For a further assay, the system named is JAR. Kind of assay: cells. The following applies: Homo sapiens.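 Further: growth inhibition of human JAR cells determined with a cell viability assay.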
The subject of a further assay is JVM-3. Kind of assay: cells. The following applies: Homo sapiens.
Another assay deals with KARPAS-45. Description: cells. The conditions noted are these: Homo sapiens.
A further assay has as its system LCLC-103H cell line. Kind of assay: cells. The conditions noted are these: Homo sapiens.
For another assay, the system named is LCLC-97TM1. Description: cells. The conditions noted are these: Homo sapiens.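 Further: cell viability assay measuring growth inhibition of human LCLC-97TM1 cells.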
The next assay concerns LU-139. Description: cells. The conditions noted are these: Homo sapiens.
Another assay concerns MDA-MB-453. Description: cells. The following applies: Homo sapiens.
Another assay has as its system MN-60. Kind of assay: cells. The following applies: Homo sapiens.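 Further: growth inhibition of the MN-60 cell line, determined with a cell viability assay.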
The next assay concerns MOLT-13. Description: cells. The conditions noted are these: Homo sapiens.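 Further: IC50 for suppression of MOLT-13 cell growth, read out with a cell viability assay.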
Another assay deals with MPP-89. Description: cells. The conditions noted are these: Homo sapiens.
In a further assay the test system is NCI-H1666. Description: cells. The conditions noted are these: Homo sapiens.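 Further: growth inhibition of the cell line, read out with a cell viability assay.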
The subject of the next assay is NCI-H1693. Kind of assay: cells. The conditions noted are these: Homo sapiens.
The subject of a further assay is NCI-H23. Description: cells. The conditions noted are these: Homo sapiens.
The test system of another assay is NCI-H292. Description: cells. The following applies: Homo sapiens.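 Further: growth inhibition of NCI-H292 cells, read out with a cell viability assay.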
The subject of the next assay is NCI-H520. Kind of assay: cells. The following applies: Homo sapiens.
The next assay relates to SNU1. Kind of assay: cells. The following applies: Homo sapiens.
In a further assay the test system is NOMO-1. Kind of assay: cells. The following applies: Homo sapiens.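 Further: growth inhibition of human NOMO-1 cells measured by a cell viability assay.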
In a further assay the test system is NY. Kind of assay: cells. The conditions noted are these: Homo sapiens.
For the next assay, the system named is OC-314. Description: cells. The conditions noted are these: Homo sapiens.
For the next assay, the system named is OCUB-M. Kind of assay: cells. The following applies: Homo sapiens.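 Further: growth inhibition of the cancer cell line, read out through a cell viability assay.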
In a further assay the test system is OE33. Description: cells. The following applies: Homo sapiens.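 Further: growth inhibition of human OE33 cells, measured by a cell viability assay.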
A further assay relates to OS-RC-2. Kind of assay: cells. The conditions noted are these: Homo sapiens.
Another assay deals with OVCAR-8. Description: cells. The conditions noted are these: Homo sapiens.
The next assay deals with P30-OHK. Kind of assay: cells. The conditions noted are these: Homo sapiens.
Another assay deals with PSN1. Description: cells. The conditions noted are these: Homo sapiens.
Another assay deals with RS4-11. Description: cells. The following applies: Homo sapiens.
The test system of a further assay is SBC-1. Kind of assay: cells. The following applies: Homo sapiens.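 Further: cell viability assay measuring growth inhibition of the SBC-1 cell line, IC50 being the concentration that halves growth.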
The subject of a further assay is SK-LU-1. Description: cells. The following applies: Homo sapiens.
A further assay deals with SK-MEL-2. Description: cells. The conditions noted are these: Homo sapiens.
A further assay concerns SK-N-AS. Kind of assay: cells. The conditions noted are these: Homo sapiens.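 Further: growth inhibition of human SK-N-AS cells, measured with a cell viability assay.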
Another assay has as its system SK-N-FI. Description: cells. The following applies: Homo sapiens.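 Further: cell viability assay measuring growth inhibition of human SK-N-FI cells.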
In the next assay the test system is SNU-449. Kind of assay: cells. The conditions noted are these: Homo sapiens.
For a further assay, the system named is SW780. Kind of assay: cells. The conditions noted are these: Homo sapiens.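 Further: growth inhibition of the cells, read out with a cell viability assay.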
A further assay concerns SW948. Kind of assay: cells. The conditions noted are these: Homo sapiens.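 Further: growth inhibition of SW948 cells, read out with a cell viability assay.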
The subject of another assay is TE-1. Kind of assay: cells. The conditions noted are these: Homo sapiens.
In the next assay the test system is 5637. Description: cells. The conditions noted are these: Homo sapiens.
The subject of the next assay is 8305C. Kind of assay: cells. The following applies: Homo sapiens.
The subject of the next assay is 8505C. Kind of assay: cells. The following applies: Homo sapiens.
A further assay deals with A3-KAW. Kind of assay: cells. The following applies: Homo sapiens.
In the next assay the test system is A673. Kind of assay: cells. The following applies: Homo sapiens.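 Further: growth inhibition of human A673 cells, read out through a cell viability assay.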
The test system of the next assay is ATN-1. Description: cells. The following applies: Homo sapiens.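 Further: growth inhibition of human ATN-1 cells, read out with a cell viability assay.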
The subject of the next assay is BB49-HNC. Kind of assay: cells. The following applies: Homo sapiens.
A further assay has as its system C8166. Kind of assay: cells. The following applies: Homo sapiens.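 Further: growth inhibition of human C8166 cells measured by a cell viability assay.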
A further assay relates to CAL-39. Description: cells. The conditions noted are these: Homo sapiens.
The subject of the next assay is CAL-51. Kind of assay: cells. The conditions noted are these: Homo sapiens.
For the next assay, the system named is CAL-62. Kind of assay: cells. The conditions noted are these: Homo sapiens.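 Further: growth inhibition of CAL-62 cells, read out with a cell viability assay.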
For the next assay, the system named is TE-6. Kind of assay: cells. The conditions noted are these: Homo sapiens.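 Further: growth inhibition of TE-6 cells, read out with a cell viability assay.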
For another assay, the system named is TE-8. Kind of assay: cells. The following applies: Homo sapiens.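 Further: growth inhibition of TE-8 cells, measured with a cell viability readout.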
A further assay has as its system UACC-893. Kind of assay: cells. The conditions noted are these: Homo sapiens.
Another assay relates to VMRC-RCZ. Description: cells. The following applies: Homo sapiens.
In another assay the test system is YAPC. Description: cells. The following applies: Homo sapiens.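 Further: growth inhibition of YAPC cells, measured with a cell viability assay.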
The subject of a further assay is COLO-320-HSR. Kind of assay: cells. The conditions noted are these: Homo sapiens.
For a further assay, the system named is IGR-1. Kind of assay: cells. The conditions noted are these: Homo sapiens.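 Further: growth inhibition of human IGR-1 cells, read out with a cell viability assay.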
In another assay the test system is NCI-H810. Description: cells. The following applies: Homo sapiens.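 Further: IC50 reflects inhibition of cancer cell line growth, read out with a cell viability assay.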
A further assay has as its system 786-0. Description: cells. The conditions noted are these: Homo sapiens.

Description for 5637: SANGER: Inhibition of human 5637 cell growth in a cell viability assay.
Description for 786-0: SANGER: Inhibition of human 786-0 cell growth in a cell viability assay.
Description for 8305C: SANGER: Inhibition of human 8305C cell growth in a cell viability assay.
Description for 8505C: SANGER: Inhibition of human 8505C cell growth in a cell viability assay.
Description for A-427: SANGER: Inhibition of human A427 cell growth in a cell viability assay.
Description for A253 cell line: SANGER: Inhibition of human A253 cell growth in a cell viability assay.
Description for A2780: SANGER: Inhibition of human A2780 cell growth in a cell viability assay.
Description for A3-KAW: SANGER: Inhibition of human A3-KAW cell growth in a cell viability assay.
Description for A673: SANGER: Inhibition of human A673 cell growth in a cell viability assay.
Description for AGS: SANGER: Inhibition of human AGS cell growth in a cell viability assay.
Description for ATN-1: SANGER: Inhibition of human ATN-1 cell growth in a cell viability assay.
Description for BB49-HNC: SANGER: Inhibition of human BB49-HNC cell growth in a cell viability assay.
Description for C8166: SANGER: Inhibition of human C8166 cell growth in a cell viability assay.
Description for CAL-39: SANGER: Inhibition of human CAL-39 cell growth in a cell viability assay.
Description for CAL-51: SANGER: Inhibition of human CAL-51 cell growth in a cell viability assay.
Description for CAL-62: SANGER: Inhibition of human CAL-62 cell growth in a cell viability assay.
Description for CHP-212: SANGER: Inhibition of human CHP-212 cell growth in a cell viability assay.
Description for COLO-320-HSR: SANGER: Inhibition of human COLO-320-HSR cell growth in a cell viability assay.
Description for COLO-824: SANGER: Inhibition of human COLO-824 cell growth in a cell viability assay.
Description for COR-L88: SANGER: Inhibition of human COR-L88 cell growth in a cell viability assay.
Description for CaR-1: SANGER: Inhibition of human CaR-1 cell growth in a cell viability assay.
Description for DMS-273: SANGER: Inhibition of human DMS-273 cell growth in a cell viability assay.
Description for DSH1: SANGER: Inhibition of human DSH1 cell growth in a cell viability assay.
Description for EM-2: SANGER: Inhibition of human EM-2 cell growth in a cell viability assay.
Description for ES7: SANGER: Inhibition of human ES7 cell growth in a cell viability assay.
Description for EW-18: SANGER: Inhibition of human EW-18 cell growth in a cell viability assay.
Description for GCT: SANGER: Inhibition of human GCT cell growth in a cell viability assay.
Description for GI-1: SANGER: Inhibition of human GI-1 cell growth in a cell viability assay.
Description for H-EMC-SS: SANGER: Inhibition of human H-EMC-SS cell growth in a cell viability assay.
Description for HCC1569: SANGER: Inhibition of human HCC1569 cell growth in a cell viability assay.
Description for HEL: SANGER: Inhibition of human HEL cell growth in a cell viability assay.
Description for HSC-2: SANGER: Inhibition of human HSC-2 cell growth in a cell viability assay.
Description for HT55: SANGER: Inhibition of human HT55 cell growth in a cell viability assay.
Description for HTC-C3: SANGER: Inhibition of human HTC-C3 cell growth in a cell viability assay.
Description for Huh-7: SANGER: Inhibition of human HuH-7 cell growth in a cell viability assay.
Description for IA-LM: SANGER: Inhibition of human IA-LM cell growth in a cell viability assay.
Description for IGR-1: SANGER: Inhibition of human IGR-1 cell growth in a cell viability assay.
Description for IST-SL1: SANGER: Inhibition of human IST-SL1 cell growth in a cell viability assay.
Description for JAR: SANGER: Inhibition of human JAR cell growth in a cell viability assay.
Description for JVM-3: SANGER: Inhibition of human JVM-3 cell growth in a cell viability assay.
Description for K5: SANGER: Inhibition of human K5 cell growth in a cell viability assay.
Description for KARPAS-45: SANGER: Inhibition of human KARPAS-45 cell growth in a cell viability assay.
Description for KU812 cell line: SANGER: Inhibition of human KU812 cell growth in a cell viability assay.
Description for L-363: SANGER: Inhibition of human L-363 cell growth in a cell viability assay.
Description for LB1047-RCC: SANGER: Inhibition of human LB1047-RCC cell growth in a cell viability assay.
Description for LCLC-103H cell line: SANGER: Inhibition of human LCLC-103H cell growth in a cell viability assay.
Description for LCLC-97TM1: SANGER: Inhibition of human LCLC-97TM1 cell growth in a cell viability assay.
Description for LU-139: SANGER: Inhibition of human LU-139 cell growth in a cell viability assay.
Description for LXF-289 cell line: SANGER: Inhibition of human LXF-289 cell growth in a cell viability assay.
Description for MDA-MB-453: SANGER: Inhibition of human MDA-MB-453 cell growth in a cell viability assay.
Description for MEG-01: SANGER: Inhibition of human MEG-01 cell growth in a cell viability assay.
Description for MHH-NB-11: SANGER: Inhibition of human MHH-NB-11 cell growth in a cell viability assay.
Description for MN-60: SANGER: Inhibition of human MN-60 cell growth in a cell viability assay.
Description for MOLT-13: SANGER: Inhibition of human MOLT-13 cell growth in a cell viability assay.
Description for MPP-89: SANGER: Inhibition of human MPP-89 cell growth in a cell viability assay.
Description for NCI-H1581: SANGER: Inhibition of human NCI-H1581 cell growth in a cell viability assay.
Description for NCI-H1666: SANGER: Inhibition of human NCI-H1666 cell growth in a cell viability assay.
Description for NCI-H1693: SANGER: Inhibition of human NCI-H1693 cell growth in a cell viability assay.
Description for NCI-H23: SANGER: Inhibition of human NCI-H23 cell growth in a cell viability assay.
Description for NCI-H292: SANGER: Inhibition of human NCI-H292 cell growth in a cell viability assay.
Description for NCI-H446: SANGER: Inhibition of human NCI-H446 cell growth in a cell viability assay.
Description for NCI-H520: SANGER: Inhibition of human NCI-H520 cell growth in a cell viability assay.
Description for NCI-H810: SANGER: Inhibition of human NCI-H810 cell growth in a cell viability assay.
Description for NOMO-1: SANGER: Inhibition of human NOMO-1 cell growth in a cell viability assay.
Description for NY: SANGER: Inhibition of human NY cell growth in a cell viability assay.
Description for OC-314: SANGER: Inhibition of human OC-314 cell growth in a cell viability assay.
Description for OCUB-M: SANGER: Inhibition of human OCUB-M cell growth in a cell viability assay.
Description for OE33: SANGER: Inhibition of human OE33 cell growth in a cell viability assay.
Description for OS-RC-2: SANGER: Inhibition of human OS-RC-2 cell growth in a cell viability assay.
Description for OVCAR-8: SANGER: Inhibition of human OVCAR-8 cell growth in a cell viability assay.
Description for P30-OHK: SANGER: Inhibition of human P30-OHK cell growth in a cell viability assay.
Description for PSN1: SANGER: Inhibition of human PSN1 cell growth in a cell viability assay.
Description for RS4-11: SANGER: Inhibition of human RS4-11 cell growth in a cell viability assay.
Description for SBC-1: SANGER: Inhibition of human SBC-1 cell growth in a cell viability assay.
Description for SK-LU-1: SANGER: Inhibition of human SK-LU-1 cell growth in a cell viability assay.
Description for SK-MEL-2: SANGER: Inhibition of human SK-MEL-2 cell growth in a cell viability assay.
Description for SK-N-AS: SANGER: Inhibition of human SK-N-AS cell growth in a cell viability assay.
Description for SK-N-FI: SANGER: Inhibition of human SK-N-FI cell growth in a cell viability assay.
Description for SNU-449: SANGER: Inhibition of human SNU-449 cell growth in a cell viability assay.
Description for SNU1: SANGER: Inhibition of human NCI-SNU-1 cell growth in a cell viability assay.
Description for SW780: SANGER: Inhibition of human SW780 cell growth in a cell viability assay.
Description for SW948: SANGER: Inhibition of human SW948 cell growth in a cell viability assay.
Description for TE-1: SANGER: Inhibition of human TE-1 cell growth in a cell viability assay.
Description for TE-6: SANGER: Inhibition of human TE-6 cell growth in a cell viability assay.
Description for TE-8: SANGER: Inhibition of human TE-8 cell growth in a cell viability assay.
Description for UACC-893: SANGER: Inhibition of human UACC-893 cell growth in a cell viability assay.
Description for VMRC-RCZ: SANGER: Inhibition of human VMRC-RCZ cell growth in a cell viability assay.
Description for YAPC: SANGER: Inhibition of human YAPC cell growth in a cell viability assay.

A word on the IC50: it is the concentration that inhibits the measured activity by half. A high value points to weaker potency. Turning to `CNC(=O)c1ccccc1Sc1ccc2c(/C=C/c3ccccn3)n[nH]c2c1` [AXITINIB], the IC50 is more than 2 µM in the assay on D-392MG; 1.41 µM in the assay on D-566MG; more than 2 µM with DMS-114; 0.168 µM in the assay with EM-2; 1.11 µM with ES7; 0.421 µM in the assay on K5. Also, the IC50 with L-363 was more than 2 µM; in the assay on LB1047-RCC, more than 2 µM; in the assay with MEG-01, 0.424 µM; with MHH-NB-11, more than 2 µM; in the assay with NCI-H1581 it was 1.39 µM; in the assay with NCI-H446, more than 2 µM. Also, the IC50 was 1.01 µM with A2780, 1.1 µM with A-427, 1.11 µM in the assay with AGS and more than 2 µM with CHP-212.

For the compound `CC[C@@H]1C(=O)N(C)c2cnc(Nc3ccc(C(=O)NC4CCN(C)CC4)cc3OC)nc2N1C1CCCC1` [BI-2536], the IC50 in the assay with KU812 cell line is 0.12 µM; in the assay on LXF-289 cell line, 0.0177 µM; with A253 cell line, 0.0882 µM; with BC1 cell line, 0.226 µM.

For `O=C(CCCCCCC(=O)Nc1ccccc1)NO` [VORINOSTAT], the IC50 in the assay on COLO-824 was determined as 7.73 µM; in the assay with COR-L88, 1.56 µM; in the assay on CaR-1, 2.86 µM; with D-566MG, 0.839 µM; in the assay on DMS-273, 2.15 µM; with DSH1 it was 2.16 µM. For the same compound, the IC50 in the assay with ES7 is 1.55 µM; in the assay on EW-18 it was 0.833 µM; in the assay on GCT it was 2.18 µM; in the assay with GI-1, 2.31 µM; with H-EMC-SS, more than 10 µM; with HCC1569 it was 4.88 µM. The IC50 in the assay on HEL was found to be 0.806 µM; in the assay with HN it was 1.89 µM; with HSC-2, 2.13 µM; in the assay on HT55, 1.65 µM; in the assay with HTC-C3 it was 2.27 µM; in the assay with Huh-7, 2.31 µM. Further, the IC50 in the assay with IA-LM turned out to be 1.69 µM; in the assay with IST-SL1, 2.17 µM; in the assay on JAR, 2.32 µM; in the assay on JVM-3 it was 1.85 µM; in the assay on KARPAS-45, 0.174 µM; in the assay on LCLC-103H cell line it was 2.9 µM. Also, the IC50 with LCLC-97TM1 is 2.15 µM; in the assay on LU-139, 0.823 µM; with MDA-MB-453, 2.24 µM; with MN-60, 1.03 µM; with MOLT-13, 0.739 µM; in the assay on MPP-89, 7.6 µM. Besides, the half-inhibitory concentration (IC50) in the assay on NCI-H1666 is 2.28 µM; in the assay on NCI-H1693, more than 10 µM; with NCI-H23 it was 1.55 µM; in the assay with NCI-H292, 2.87 µM; in the assay with NCI-H520, more than 10 µM; in the assay on SNU1, 1.02 µM. Further, the IC50 with NOMO-1 is 2.19 µM; with NY it was more than 10 µM; in the assay on OC-314, 2.23 µM; in the assay with OCUB-M it was 3.55 µM; in the assay with OE33 it was 4.88 µM; with OS-RC-2, 1.87 µM. Further, the IC50 in the assay with OVCAR-8 is 1.54 µM; in the assay with P30-OHK, 0.836 µM; with PSN1 it was 2.29 µM; in the assay on RS4-11 it was 0.832 µM; with SBC-1, 0.794 µM; with SK-LU-1, more than 10 µM. The IC50 in the assay with SK-MEL-2 amounted to 0.809 µM; in the assay on SK-N-AS, 0.988 µM; in the assay with SK-N-FI, 4.94 µM; in the assay with SNU-449 it was 2.89 µM; in the assay on SW780, 4.86 µM; in the assay with SW948, 2.18 µM. Also, the IC50 stood at 0.791 µM in the assay with TE-1; 2.32 µM in the assay with 5637; 2.87 µM in the assay with 8305C; 1.02 µM in the assay on 8505C; 0.401 µM in the assay with A3-KAW; 2.26 µM with A673. The IC50 was 0.74 µM in the assay on ATN-1; more than 10 µM in the assay on BB49-HNC; 2.21 µM in the assay with C8166; 2.24 µM in the assay on CAL-39; 2.17 µM in the assay on CAL-51; 3.55 µM in the assay on CAL-62. Besides, the IC50 in the assay on TE-6 was 4.94 µM; in the assay on TE-8 it was 2.16 µM; in the assay on UACC-893, more than 10 µM; in the assay with VMRC-RCZ, more than 10 µM; in the assay with YAPC it was more than 10 µM; in the assay with COLO-320-HSR it was 1.88 µM.

On to `NC(=O)[C@@H](CCC(F)(F)F)N(Cc1ccc(-c2ncon2)cc1F)S(=O)(=O)c1ccc(Cl)cc1`, for which the IC50 in the assay on IGR-1 came to 1.05 µM; in the assay with NCI-H810, 0.426 µM; in the assay with 786-0, 0.322 µM.
